Here are results for 20 compounds from patent US20060252823A1, “Isocoumarin-based inhibitors of urokinase-type plasminogen activator” (priority 2005, published 2006).

The target of one series is T1, Human urokinase (Homo sapiens, UniProt P00749).
T1 construct: purchased Sigma/Aldrich
Briefly: Kinetics of human urokinase inhibition with Spectrozyme UK substrate. The format is biochemical. Particulars: for binding to uPA compared to unsubstituted counterparts: qualitative comparison of dissociation constants (Table 1); for fold improvement of Ki over 4d: compared to unsubstituted compound 4d; for Ki: human uPA, 0.1M Tris pH 8.8, 25° C., initial rate data. As for the experimental part: Human urokinase (Sigma/Aldrich, St. Louis, Mo.) and Spectrozyme UK (American Diagnostica, Stamford, Conn.) were used for the kinetic studies. Enzyme activity was routinely measured in 1 ml volumes of 0.1M Tris, pH 8.8, Spectrozyme UK (10 μM to 150 μM) and 0.64 μg (3,770 units/mg protein) human urokinase. Reactions were monitored at 405 nm, 25° C., with a Perkin/Elmer Lambda S2 UV/vis spectrophotometer. Michaelis constants and Ki values were determined from initial rate data, measured at 8 to 10 substrate concentrations, by non-linear regression analysis with SigmaPlot's Enzyme Kinetics Module™ (Chicago, Ill., USA).

Structures can show the parent of a compound that is named as a salt. A value given as a limit tells only on which side of the number the result lay.

On to `O=C(c1c(OCCCBr)oc(=O)c2ccccc12)C(F)(F)F` [Compound 10c, 3-(3-Bromopropoxy)-4-trifluoroacetylisocoumarin], for which the “binding to uPA compared to unsubstituted counterparts” value at Human urokinase was “did not show improved binding”.
What is called melting point is the temperature, or range, at which the solid turns liquid. `O=c1oc(OCCCCBr)c(Cl)c2ccccc12` [Compound 4e, 3-(4-Bromobutoxy)4-chloroisocoumarin] returned a melting point of 75 to 77 °C.
The term Ki denotes the dissociation constant of the complex between target and ligand, obtained from inhibition or displacement. A low value points to a stronger hold on the target. Compound `O=C(Nc1ccc2c(Cl)c(OCCCBr)oc(=O)c2c1)c1ccccc1` [Compound 8b, 7-Benzamido-3-(3-bromopropoxy)-4-chloroisocoumarin] yielded a melting point of 193 to 194 °C. Besides, at Human urokinase, the “fold improvement of Ki over 4d” value was 300 fold, affinity was put at a Ki of 34 nM and the “binding to uPA compared to unsubstituted counterparts” value was “markedly improved binding”. Also, the dissociation constant entry on Human urokinase (in words) is reported as “low nanomolar range”.
Compound `Nc1ccc2c(Cl)c(OCCCBr)oc(=O)c2c1` [Compound 6b, 7-Amino-3-(3-bromopropoxy)-4-chloroisocoumarin] yielded a melting point of 106 to 107 °C.
For the compound `Nc1ccc2cc(OCCBr)oc(=O)c2c1` [Compound 11, 7-Amino-3-(2-bromoethoxy)isocoumarin], the melting point was > 280 °C.
For the compound `Br.NC(S)=NCCCOc1oc(=O)c2cc(NC(=O)c3ccccc3)ccc2c1Cl` [Compound 9b, 7-Benzamido-4-chloro-3-(3-isothioureidopropoxy)isocoumarin hydrobromide], the melting point was 203 to 204 °C. Besides, the “binding to uPA compared to unsubstituted counterparts” value on Human urokinase was “did not exhibit any significant improvement in binding”.
`O=c1oc(OCCBr)c(Cl)c2ccc([N+](=O)[O-])cc12` [Compound 4a, 3-(2-Bromoethoxy)-4-chloro-7-nitroisocoumarin]: the melting point was 126 to 128 °C. The “binding to uPA compared to unsubstituted counterparts” value on Human urokinase is “improved binding”.
In the same order, the values of `O=C(Nc1ccc2c(Cl)c(OCCBr)oc(=O)c2c1)c1ccccc1` [Compound 8a, 7-Benzamido-3-(2-bromoethoxy)-4-chloroisocoumarin] are 214 to 216 °C and “markedly improved binding”.
As to `N=C(N)SCCOc1oc(=O)c2ccccc2c1Cl` [Compound 5c, 4-Chloro-3-(2-isothioureidoethoxy)isocoumarin hydrobromide], the inhibition constant (Ki) at Human urokinase stood at 27 nM. This counts as double-digit nanomolar.
`Br.NC(S)=NCCCOc1oc(=O)c2ccccc2c1Cl` [Compound 5d, 4-Chloro-3-(3-isothioureidopropoxy)isocoumarin hydrobromide] registered a melting point of 159 to 163 °C.
With `Br.NC(S)=NCCCOc1cc2ccc(N)cc2c(=O)o1` [Compound 7b, 7-Amino-3-(3-isothioureidopropoxy)isocoumarin hydrobromide], the melting point was 173 °C.
For the compound `Br.N=C(S)NCCOc1oc(=O)c2cc(NC(=O)c3ccccc3)ccc2c1Cl` [Compound 9a, 7-Benzamido-4-chloro-3-(2-isothioureidoethoxy)isocoumarin hydrobromide], the melting point was 173 to 175 °C.
On the same count and under the same terms, with `Nc1ccc2c(Cl)c(OCCBr)oc(=O)c2c1` [Compound 6a, 7-Amino-3-(2-bromoethoxy)4-chloroisocoumarin] the figure was 134 to 136 °C.
Still for that read-out and setting: with `O=c1oc(OCCBr)c(Cl)c2ccccc12` [Compound 4c, 3-(2-Bromoethoxy)-4-chloroisocoumarin] the figure was 81 to 82 °C.
Consider `O=c1oc(OCCCBr)cc2ccc([N+](=O)[O-])cc12` [Compound 10b, 3-(3-Bromopropoxy)-7-nitroisocoumarin], for which the melting point was 112 to 113 °C.
As to `O=c1oc(OCCCBr)c(Cl)c2ccccc12` [Compound 4d, 3-(3-Bromopropoxy)-4-chloroisocoumarin], the melting point was 95 to 97 °C. Besides, at Human urokinase, the “type of inhibition of uPA” value was “simple competitive inhibition with no evidence of rapid inactivation” and affinity was put at a Ki of 9000 nM.
Consider `Br.N=C(S)NCCOc1oc(=O)c2ccccc2c1Cl` [Compound 5c, 4-Chloro-3-(2-isothioureidoethoxy)isocoumarin hydrobromide], for which the melting point is 168 to 170 °C.
As to `O=c1oc(OCCBr)cc2ccc([N+](=O)[O-])cc12` [Compound 10a, 3-(2-Bromoethoxy)-7-nitroisocoumarin], the melting point lay within 95 to 97 °C.
On to `Br.N=C(S)NCCCCOc1oc(=O)c2ccccc2c1Cl` [Compound 5e, 4-Chloro-3-(4-isothioureidobutoxy)isocoumarin hydrobromide], for which the melting point lay in the range of 159 to 161 °C.
In turn, `O=c1oc(OCCCBr)c(Cl)c2ccc([N+](=O)[O-])cc12` [Compound 4b, 3-(3-Bromopropoxy)-4-chloro-7-nitroisocoumarin] showed a melting point of 131 to 134 °C. Also, at Human urokinase, the “fold improvement of Ki over 4d” value amounted to 8 fold; the affinity, expressed as Ki, was 1200 nM; the “binding to uPA compared to unsubstituted counterparts” value is listed as “improved binding”.
